Experimental data as given in publication PMC6364417, “Kinase inhibitor library screening identifies synergistic drug combinations effective in sensitive and resistant melanoma cells” (Journal of Experimental & Clinical Cancer Research : CR, 2019).
pIC50: −log10 of the molar value. Read-outs that look alike come from different tables or passages of the source. One block for each compound: values may come before it.

Assays:
[1] = system: 501Mel-GP cells (Dabrafenib-resistant); assay: Dose-response curves and IC50, PrestoBlue cell viability, 72 h; details: Homo sapiens, 72 h, read-out: Half-maximal inhibitory concentration (IC50)
Description: (§4) All inhibitors used in this study were purchased from Selleck Chemicals (Houston, USA). They were dissolved in DMSO to a stock concentration of 10 mM according to the manufacturer’s instructions and stored at − 80 °C. […] Cell viability was measured with the PrestoBlue Cell Viability Reagent (ThermoFisher Scientific) on a CLARIOstar Monochromator microplate reader (BMG Labtech). Using the GraphPad Prism v5.04 software, the half-maximal inhibitor concentration values (IC50) were determined from the curve using the nonlinear log (inhibitor) vs response-variable slope (four parameters) equation. […] The IC50’s were determined for 3 biological replicates and are listed with their standard deviations.

[2] = system: PARP cleavage; assay: Western blot, PARP cleavage in A375 cells; assay type: cell-based, human; details: A375, A375-XP, A375-GP; 24 h treatment
Description: Cells were seeded at a density of 10^5 cells/well in 24-well plates (Greiner). 24 h post seeding, cells were treated with inhibitors at indicated amounts for 3 h and/or 24 h. […] The following primary antibodies were used: anti-phospho-CHK1 (Ser317) (Cell Signalling Technology, 1:1000), anti-CHK1 (Cell Signalling Technology, 1:1000), anti-phospho-cdc2 (Tyr15) (Cell Signalling Technology, 1:1000), anti-cdc2 (Cell Signalling Technology, 1:1000), anti-PARP (Cell Signalling Technology, 1:1000), anti-cleaved-PARP (Cell Signalling Technology, 1:1000), anti-phospho-Erk (Tyr202/Tyr204) (Cell Signalling Technology, 1:2000), anti-Erk1/2 (Santa Cruz, Erk1 = 1:1000, Erk2 = 1:2000), anti-phospho-Akt (Ser473) (Cell Signalling Technology, 1:1500), anti-Akt1/2 (Santa Cruz, 1:1000), anti-Vinculin (Abcam, 1:1000) and anti-Tubulin (Santa Cruz, 1:5000). HRP-labeled secondary antibodies were purchased from Cell Signaling Technology (Boston, MA).

[3] = system: A375 cells; assay: Synergy determination with the Chou-Talalay method (CompuSyn), cell viability 72 h; assay type: cell-based, human; details: 72 h cell viability, Chou-Talalay / Synergyfinder
Description: The Chou-Talalay method to determine possible synergistic effects of selected kinase inhibitor combinations was used as described in [19]. […] Cells were treated with either single inhibitors or combinations thereof at indicated amounts in technical triplicates. The amounts were pre-determined from each inhibitor’s IC50 value and inhibitors were assayed in a defined dilution series and at constant ratio when combined. […] Combination Index (CI) values showing either synergy (< 1) or antagonism (> 1) were calculated with the CompuSyn software (ComboSyn, Inc).

[4] = system: A375-XP cells (Vemurafenib-resistant); assay: Dose-response curves and IC50, PrestoBlue cell viability, 72 h; assay type: cell-based, human; details: n.e. = did not suppress growth below 50% in the tested concentration range; for pIC50: read-out: Half-maximal inhibitory concentration value (IC50), Mean
[5] = system: A375-GP cells (Dabrafenib-resistant); assay: as above; assay type: cell-based, human; details: n.e. = did not suppress growth below 50% in the tested concentration range; for pIC50: read-out: Half-maximal inhibitory concentration value (IC50), Mean
[6] = system: A375 cells (parental sensitive) tumors; assay: In vivo assay, subcutaneous melanoma tumors in NSG mice; set-up: species or system NOD scid gamma (NSG) mice; details: NSG mice with A375 or A375-XP tumors, 8 days of daily treatment
Description: NOD scid gamma (NSG) mice were bred in-house and experiments were performed according to all applicable laws and regulations, after receiving approval by the institution’s animal experimentation ethics committee and the veterinarian service of the Ministry of Agriculture (Permit Number: 18-MDM-01). Single parental sensitive A375 cells (0.5 × 10^6 cells) and Vemurafenib-resistant A375-XP cells (2 × 10^6 cells) were resuspended in 100 μL of 1:1 mixed serum-free medium and matrigel (BD Biosciences) and injected subcutaneously in 6–8 week-old mice. […] Control mice received the respective vehicle by oral gavage and intraperitoneal injection. […] Statistical analysis was done using a two-way ANOVA followed by post-hoc Tukey’s multiple comparison tests.

[7] = system: IGR37-GP cells (Dabrafenib-resistant); assay: Dose-response curves and IC50, PrestoBlue cell viability, 72 h; details: Homo sapiens, 72 h, read-out: Half-maximal inhibitory concentration (IC50)
[8] = system: IGR37-XP cells (Vemurafenib-resistant); assay: as above; details: Homo sapiens, 72 h, read-out: Half-maximal inhibitory concentration (IC50)
Description: as §4
(§5) Values represent the mean of at least three biological replicates; one representative curve of at least 3 biological replicates is depicted. _XP: cells resistant to Vemurafenib (red), _GP: cells resistant to Dabrafenib (green).

[9] = system: 501Mel-XP cells (Vemurafenib-resistant); assay: as above; details: Homo sapiens, 72 h, read-out: Half-maximal inhibitory concentration (IC50)
Description: as §4, §5

[10] = system: 501Mel cells (parental); assay: as above; details: Homo sapiens, 72 h, read-out: Half-maximal inhibitory concentration (IC50)
[11] = system: A375 cells (parental); assay: as above; assay type: cell-based, human; details: read-out: Half-maximal inhibitory concentration value (IC50), Mean
[12] = system: IGR37 cells (parental); assay: as above; details: Homo sapiens, IGR-37, 72 h, read-out: Half-maximal inhibitory concentration (IC50)
Description: as §4, §5

[13] = system: NHEM (normal human epidermal melanocytes); assay: Dose-response curves and IC50 in non-cancer cells, cell viability, 72 h; details: for effect on healthy cells, cell viability (in words): melanocytes (NHEM)
Description: (§1) The IC50 values (nM) were calculated as indicated in Methods.

[14] = system: NHDF (normal human dermal fibroblasts); assay: as above; details: for effect on healthy cells, cell viability (in words): fibroblasts (NHDF)
Description: as §1

[15] = system: A375 parental cells expressing iRFP; assay: Long-term inhibitor treatment, iRFP fluorescence proliferation monitoring; assay type: cell-based, human
Description: A375 parental and BRAFi-resistant cells, virally transduced with the near-infrared fluorescent protein (iRFP) were seeded at a density of 2500 cells/well in a 24-well plate (Greiner) in at least technical triplicates. Inhibitors, single or in combination, were added at the indicated amounts and replenished every 72 h for a duration of 76 days. To assess whether any remaining cells have become resistant to the treatment and would re-emerge, the drugs were removed and the cells underwent “drug holidays” for an additional 21 days. During the long-term treatment, cell proliferation was monitored bi-weekly on a LI-COR Odyssey Infrared Imaging System (LI-COR Biosciences). Fluorescence intensity was quantified with the Image Studio™ Lite software (LI-COR Biosciences).

[16] = system: IGR37-GP cells (Dabrafenib-resistant); assay: Kinase inhibitor library screening, PrestoBlue cell viability, 1 or 10 μM, 72 h; details: IGR37 GP, 72 h
[17] = system: IGR37-XP cells (Vemurafenib-resistant); assay: as above; details: IGR37 XP, 72 h
[18] = system: A375-GP cells (Dabrafenib-resistant); assay: as above; details: A375 GP, 72 h
[19] = system: 501Mel-GP cells (Dabrafenib-resistant); assay: as above; details: 501Mel GP, 72 h
[20] = system: 501Mel-XP cells (Vemurafenib-resistant); assay: as above; details: 501Mel XP, 72 h
[21] = system: A375-XP cells (Vemurafenib-resistant); assay: as above; details: A375 XP, 72 h
[22] = system: IGR37 cells (parental); assay: as above; details: IGR37 Parental, 72 h
[23] = system: A375 cells (parental); assay: as above; details: A375 Parental, 72 h
[24] = system: 501Mel cells (parental); assay: as above; details: 501Mel Parental, 72 h
Outline: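 Readout: PrestoBlue signal on a monochromator plate reader, given as percent viability relative to untreated controls. Parental and drug-resistant (Vemurafenib XP, Dabrafenib GP) sublines were tested; at least duplicates per line.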

[25] = system: P-Akt levels; assay: Western blot, phospho-Akt; assay type: cell-based, human; details: A375 cells, 3 h treatment
Description: (§2) Cells were seeded at a density of 10^5 cells/well in 24-well plates (Greiner). 24 h post seeding, cells were treated with inhibitors at indicated amounts for 3 h and/or 24 h. Western blot analysis was performed as described before. The following primary antibodies were used: anti-phospho-CHK1 (Ser317) (Cell Signalling Technology, 1:1000), anti-CHK1 (Cell Signalling Technology, 1:1000), anti-phospho-cdc2 (Tyr15) (Cell Signalling Technology, 1:1000), anti-cdc2 (Cell Signalling Technology, 1:1000), anti-PARP (Cell Signalling Technology, 1:1000), anti-cleaved-PARP (Cell Signalling Technology, 1:1000), anti-phospho-Erk ([…]) (Cell Signalling Technology, 1:2000), anti-Erk1/2 (Santa Cruz, Erk1 = 1:1000, Erk2 = 1:2000), anti-phospho-Akt (Ser473) (Cell Signalling Technology, 1:1500), anti-Akt1/2 (Santa Cruz, 1:1000), anti-Vinculin (Abcam, 1:1000) and anti-Tubulin (Santa Cruz, 1:5000). HRP-labeled secondary antibodies were purchased from Cell Signaling Technology (Boston, MA).
(§3) Supplementary file 13046_2019_1038_MOESM6_ESM.pdf: Additional file 6: Figure S4. Western blot analysis for selected drug treatments and apoptosis assays in healthy and melanoma cells. […] Cells were treated for 3 h with indicated concentrations of inhibitors. […] P-cdc2 (CDK1), cdc2 (CDK1), p-Chk1 and Chk1 were detected after 3 h drug treatment, while PARP cleavage was detected after 24 h treatment. […]

[26] = system: Erk phosphorylation; assay: Western blot, phospho-Erk; assay type: cell-based, human; details: A375 cells, 3 h treatment
Description: as §2, §3

[27] = Homo sapiens, A-375, n.e. = did not suppress growth below 50% in the tested concentration range
[28] = n.e. = did not suppress growth below 50% in the tested concentration range

Structure (SMILES): NC(=O)Nc1cc(-c2cccc(F)c2)sc1C(=O)N[C@H]1CCCNC1 [AZD7762]
pIC50 [1]: 6.37
Cleavage of PARP (in words) [2]: induced
synergistic effects with the BRAF inhibitors Vemurafenib and/or Dabrafenib (in words) [3]: clear synergistic effects
pIC50 ([4]; Homo sapiens): 6.44
pIC50 ([5]; Homo sapiens): 6.52
body weight and side effects during treatment (in words) [6]: did not lose weight
pIC50 [7]: 7.15
pIC50 [8]: 7.24
pIC50 [9]: 6.73
pIC50 [10]: 6.51
pIC50 [11, 27]: 6.51
pIC50 [12]: 7.19
pIC50 ([13]; Homo sapiens, Melanocyte, read-out: Half-maximal inhibitory concentration (IC50), NHEM Mean): 6.45
effect on healthy cells, cell viability (in words) [13]: very modest effects
pIC50 ([14]; Homo sapiens, NHDF, read-out: Half-maximal inhibitory concentration (IC50), NHDF Mean): 6.27
effect on healthy cells, cell viability (in words) [14]: very modest effects

Structure (SMILES): O=c1[nH]c2ccc(Cl)cc2c(N[C@@H]2CN3CCC2CC3)c1-c1nc2ccccc2[nH]1 [CHIR-124, reference compound]
synergistic effects with the BRAF inhibitors Vemurafenib and/or Dabrafenib (in words) [3]: synergistic effects only with Dabrafenib
long-term cell growth under drug until day 76 (in words) ([15]; 150 nM, even with Dabrafenib (data not shown)): not sufficient to prevent cells to grow back
long-term cell growth under drug until day 76 (in words) ([15]; 300 nM single treatment): killed most of the cells
pIC50 [4]: 6.49
pIC50 [5]: 6.56
cell viability (kinase inhibitor library screening) ([16]; 1μΜ): 91.0%
cell viability (kinase inhibitor library screening) ([16]; 10μΜ): 2.3%
cell viability (kinase inhibitor library screening) ([17]; 1μΜ): 63.5%
cell viability (kinase inhibitor library screening) ([17]; 10μΜ): 1.6%
cell viability (kinase inhibitor library screening) ([18]; 1μΜ): 18.2%
cell viability (kinase inhibitor library screening) ([18]; 10μΜ): 1.5%
cell viability (kinase inhibitor library screening) ([19]; 1μΜ): 40.5%
cell viability (kinase inhibitor library screening) ([19]; 10μΜ): 0.146%
cell viability (kinase inhibitor library screening) ([20]; 1μΜ): 26.0%
cell viability (kinase inhibitor library screening) ([20]; 10μΜ): 0.156%
cell viability (kinase inhibitor library screening) ([21]; 1μΜ): 40.8%
cell viability (kinase inhibitor library screening) ([21]; 10μΜ): 1.5%
cell viability (kinase inhibitor library screening) ([22]; 1μΜ): 57.6%
cell viability (kinase inhibitor library screening) ([22]; 10μΜ): 1.0%
cell viability (kinase inhibitor library screening) ([23]; 10μΜ): 2.4%
cell viability (kinase inhibitor library screening) ([23]; 1μΜ): 23.5%
cell viability (kinase inhibitor library screening) ([24]; 1μΜ): 47.8%
cell viability (kinase inhibitor library screening) ([24]; 10μΜ): 0.9%
pIC50 [11, 28]: 6.63

pIC50 [4]: 6.75
pIC50 [5]: 6.52
Structure (SMILES): CNC(=O)c1ccccc1Nc1nc(Nc2ccc(N3CCOCC3)cc2OC)ncc1Cl [TAE226]
synergistic effects with the BRAF inhibitors Vemurafenib and/or Dabrafenib (in words) [3]: Vemurafenib showed synergism
pIC50 [11, 28]: 6.31
P-Akt levels (in words) [25]: blocking P-Akt levels

Half-maximal inhibitory concentration value (IC50), Mean [4]: n.e.
Half-maximal inhibitory concentration value (IC50), Mean [5]: n.e.
Structure (SMILES): CCCS(=O)(=O)Nc1ccc(F)c(C(=O)c2c[nH]c3ncc(-c4ccc(Cl)cc4)cc23)c1F [Vemurafenib]
Erk phosphorylation (in words) [26]: inhibition of Erk phosphorylation by Vemurafenib was confirmed
pIC50 [11, 27]: 6.87
effect on healthy cells, cell viability (in words) [13]: did not have any effect
effect on healthy cells, cell viability (in words) [14]: did not have any effect
